From US12447167B2, “GM-CSF-producing t-cell control agent and Th1/Th2 immune balance regulator” (National Center of Neurology and Psychiatry, priority 2014, dated 2025)

Test system: GM-CSF-producing CD4-positive memory T-cells
Test: GM-CSF-producing CD4-positive memory T-cells in PBMCs of MS patients after single oral dose (FACS)
Format: in vivo, human
Conditions: 0.3 mg single oral
Description: A single dose of compound 31, which is a synthetic glycolipid of the present invention, described in the first aspect was orally administered to each of 2 MS patients (subjects) shown in Table 2 above after obtainment of informed consent. The dose was set to 0.3 mg per person.
Subsequently, T-cell subfractions were prepared from the peripheral blood of each subject by using the density gradient centrifugation method. First, a total of 20 mL of blood was collected from the vein of each subject 24 hours (1st day), 48 hours (2nd day), 72 hours (3rd day), 168 hours (7th day), and 192 hours (8th day) after the administration of compound 31 by using two 10-mL heparin sodium-containing vacuum blood collection tubes. For a control, 20 mL of blood was similarly collected from the vein of each subject one day before the administration of compound 31.
Hereinafter, peripheral blood mononuclear cells (PBMCs) were collected by the same operation as in Example 1.
The collected PBMCs were stained with antibodies by the following method. First, 10 μL of a solution consisting of 8 μL of PBS containing 0.5% BSA/2 mM EDTA-2Na, 0.5 μL of APC-Cy7-anti-CD3 antibody (BioLegend, Inc.), 0.5 μL of ECD-anti-CD8 antibody (Beckman Coulter, Inc.), and 1 μL of PB-anti-CD45RA antibody (BioLegend, Inc.) was added to 2×10^6 cells of PBMCs, thoroughly mixed by vortexing, and then left on ice for 10 minutes. CD3 is a detection marker of T-cells, and CD3^+ cells indicate being T-cells. Also, CD45RA is a detection marker of naive T-cells, and CD45RA^+ cells indicate being naive T-cells. Also, CD45RA^− cells indicate being memory T-cells. Furthermore, CD8^− cells indicate being CD4^+ cells. 1 mL of PBS containing 0.5% BSA/2 mM EDTA-2Na was added, and after centrifugation at 1500 rpm for 5 minutes, a supernatant was removed by suction. Next, 100 μL of BD FIX buffer (Becton, Dickinson and Company) was added dropwise while vortexed, and then left on ice for 20 minutes. 1 mL of MACS buffer was added again, and after centrifugation at 1500 rpm for 5 minutes, a supernatant was removed by suction. Subsequently, 1 mL of 0.1% saponin was added, and the resultant was left at room temperature under light shielding for 2 minutes.
Subsequently, the resultant was dispensed as 250 μL (I group) and 750 μL (II group), and after centrifugation at 2200 rpm for 5 minutes, a supernatant was removed by suction.
For group I, 11 μL of a solution consisting of 7 μL of 0.1% saponin, 1 μL of PerCP-Cy5.5-anti-mouse IgG1 antibody (BioLegend, Inc.), 1 μL of Alexa 488-anti-mouse IgG1 antibody (BioLegend, Inc.), 1 μL of APC-anti-mouse IgG1 antibody (BioLegend, Inc.), and 1 μL of PE-anti-rat IgG1 antibody (Becton, Dickinson and Company) was added, thoroughly mixed by vortexing, and then left on ice for 10 minutes. […]

Q: What does the source list for CCCCCCCCCCCCCCCCCCCCCCCC(=O)NC(COC1OC(CO)C(O)C(O)C1O)[C@H](O)C(O)CCCCC (stereo in doubt) [compound 31, (2S,3S,4R)-1-O-(α-D-galactosyl)-2-(N-tetracosanoylamino)-1,3,4-nonanetriol]?
A: proportion of GM-CSF-producing CD4-positive memory T-cells in PBMCs (after administration vs day-1): decreased; Abundance ratio of mCD4T (%) (day 1, GM-CSF-producing CD4-positive memory T-cells in PBMCs, day −1 value 9.64): 6.035%; Abundance ratio of mCD4T (%) (day 3, day −1 value 9.64): 6.76%; Abundance ratio of mCD4T (%) (day 7, day −1 value 9.64): 14.325%
